In patent US7256207B2, “Inhibitors of cathepsin S” (IRM LLC, priority 2003, dated 2007):

Experiments:
Assay type in all cases: biochemical
Cathepsin S = Cathepsin S (Homo sapiens, UniProt P25774); test: Cathepsin S inhibition assay, fluorogenic peptide substrate; conditions: Cathepsin S inhibition constant; pH5.5, 20 minutes preincubation at room temperature; read-out: Ki Cat. S
Method: (§1) The optimal substrate for cathepsin S, acetyl-histidine-proline-valine-lysine-amino carbamoyl coumarin, was identified from screening a combinatorial library of fluorogenic peptide substrates (Harris, J. L., B. J. Backes, et al. Proc Natl Acad Sci U S A 2000, 97(14), 7754-9). Kinetic measurements are performed in a total reaction volume of 30 μl in 384-well microtiter plates. Cathepsin S, at a final concentration of 0.3-3 nM (active site), is incubated with the compounds at twelve varying concentrations in a buffer containing 100 mM NaAc (pH5.5), 1 mM EDTA, 100 mM NaCl, 0.01% Brij-35 for 20 minutes at room temperature. Control reactions in the absence of inhibitor are performed in replicates of 24. The reactions are initiated by adding the substrate, acetyl-histidine-proline-valine-lysine-amino carbamoyl coumarin, to a final concentration of 50 μM. The rate of substrate hydrolysis is measured by monitoring the increase in fluorescence at an excitation wavelength of 380 nm and an emission wavelength of 450 nm that results from cleavage of the aniline bond in the substrate by the enzyme. The apparent inhibition constants for the compounds are determined from the enzyme progress curves (Kuzmic, P., K. C. Elrod, et al. Anal Biochem 2000, 286(1), 45-50) and are then used to calculate the inhibition constants for competitive inhibitors.

Cathepsin L = Cathepsin L (Homo sapiens, UniProt P07711); test: Cathepsin L inhibition assay, fluorogenic peptide substrate (selectivity for Cat. S over Cat. L); conditions: ratio of cathepsin L inhibition constant to cathepsin S inhibition constant
Chain of Cathepsin L (P07711 114-333, species assumed): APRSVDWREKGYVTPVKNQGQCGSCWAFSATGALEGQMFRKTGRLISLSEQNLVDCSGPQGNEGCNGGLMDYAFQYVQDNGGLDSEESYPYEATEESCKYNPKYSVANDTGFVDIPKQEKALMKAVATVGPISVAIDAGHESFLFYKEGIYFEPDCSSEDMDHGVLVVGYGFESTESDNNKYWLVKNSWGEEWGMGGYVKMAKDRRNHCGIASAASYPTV
Method: as §1, with “cathepsin L, acetyl-histidine-lysine-phenylalanine-lysine-amino” for “cathepsin S, acetyl-histidine-proline-valine-lysine-amino”, “Cathepsin L,” for “Cathepsin S,”, “of 0.1” for “of 0.3-3”, “substrate, acetyl-histidine-lysine-phenylalanine-lysine-amino” for “substrate, acetyl-histidine-proline-valine-lysine-amino”, “of 20” for “of 50”
(§2) Selectivity for cathepsin S in the presence of cathepsin isozymes was determined by the ratio of the cathepsin isozyme inhibition constant of a compound of the present invention to the cathepsin S inhibition constant of the same compound. Preferred compounds of the present invention selective for cathepsin S have ratios of greater than 10. More preferred compounds of the present invention selective for cathepsin S have ratios of greater than 100. Most preferred compounds of the present invention selective for cathepsin S have ratios of greater than 1000.

Cathepsin B = Cathepsin B (Homo sapiens, UniProt P07858); test: Cathepsin B inhibition assay, fluorogenic peptide substrate (selectivity for Cat. S over Cat. B); conditions: ratio of cathepsin B inhibition constant to cathepsin S inhibition constant
Method: as §1, with “B,” for “S,”, “1.5” for “0.3-3”, “[…].” for “50 μM.”
as §2

Cathepsin K = target: T1, Cathepsin K (Homo sapiens, UniProt P43235); test: Cathepsin K inhibition assay, fluorogenic peptide substrate (selectivity for Cat. S over Cat. K); conditions: ratio of cathepsin K inhibition constant to cathepsin S inhibition constant
T1 sequence (P43235 115-329): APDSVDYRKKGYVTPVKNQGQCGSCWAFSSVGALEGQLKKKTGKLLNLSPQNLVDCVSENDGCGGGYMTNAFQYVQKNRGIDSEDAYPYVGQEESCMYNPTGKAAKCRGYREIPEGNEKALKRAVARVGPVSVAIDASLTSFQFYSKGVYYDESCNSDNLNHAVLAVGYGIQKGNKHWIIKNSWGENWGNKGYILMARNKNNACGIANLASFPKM
Method: as §1, with “cathepsin K, acetyl-lysine-histidine-proline-lysine-amino” for “cathepsin S, acetyl-histidine-proline-valine-lysine-amino”, “Cathepsin K,” for “Cathepsin S,”, “of 3.5” for “of 0.3-3”, “substrate, acetyl-lysine-histidine-proline-lysine-amino” for “substrate, acetyl-histidine-proline-valine-lysine-amino”, “of 40” for “of 50”
as §2

Chain of Cathepsin S (P25774 115-331, species assumed): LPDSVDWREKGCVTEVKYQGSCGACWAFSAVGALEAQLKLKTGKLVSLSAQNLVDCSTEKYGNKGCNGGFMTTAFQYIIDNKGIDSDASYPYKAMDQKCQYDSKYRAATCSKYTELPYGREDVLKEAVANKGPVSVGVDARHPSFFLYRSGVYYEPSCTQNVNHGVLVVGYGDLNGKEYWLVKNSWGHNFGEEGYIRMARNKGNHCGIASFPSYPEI

SMILES | Ki (Cathepsin S) | Selectivity for Cat. S over Cat. L (Cathepsin L) | Selectivity for Cat. S over Cat. B (Cathepsin B) | Selectivity for Cat. S over Cat. K (Cathepsin K)
CC(C)(C)C[C@H](Cn1cnc2cc(Cl)c(Cl)cc21)OC(=O)N[C@@H](CO)CN1CCc2cc(F)ccc21 [Example 1, 1-(R)-(5,6-Dichloro-benzimidazol-1-ylmethyl)-3,3-dimethyl-butyl [2-(5-fluoro-2,3-dihydro-indol-1-yl)-1-(R)-hydroxymethyl-ethyl]carbamate] | < 10000 nM | + (+, >10) | + (+, >10) | − (−, <10)
CC(C)(C)C[C@@H](Cn1cnc2cc(Cl)c(Cl)cc21)OC(=O)N[C@@H](CO)CN1CCc2cc(F)ccc21 [Example 2, 1-(S)-(5,6-Dichloro-benzimidazol-1-ylmethyl)-3,3-dimethyl-butyl [2-(5-fluoro-2,3-dihydro-indol-1-yl)-1-(R)-hydroxymethyl-ethyl]carbamate] | < 100 nM | + (+, >10) | +++ (+++, >1000) | ++ (++, >100)
C[C@@H](CN1CCc2cc(F)ccc21)NC(=O)O[C@@H](CC1CCCC1)Cn1cnc2ccccc21 [Example 6, 2-(Benzimidazol-1-yl)-1-(S)-cyclopentylmethyl-ethyl [2-(5-fluoro-2,3-dihydro-indol-1-yl)-1-(S)-methyl-ethyl]carbamate] | < 100 nM | ++ (++, >100) | +++ (+++, >1000) | + (+, >10)
C[C@@H](CN1CCc2cc(F)ccc21)NC(=O)O[C@H](Cn1cnc2ccccc21)CC(C)(C)C [Example 4, 1-(S)-(Benzimidazol-1-ylmethyl-3,3-dimethyl)-butyl [2-(5-fluoro-2,3-dihydro-indol-1-yl)-1-(S)-methyl-ethyl]carbamate] | < 100 nM | ++ (++, >100) | +++ (+++, >1000) | + (+, >10)
CC(C)(C)C[C@@H](Cn1cnc2ccccc21)OC(=O)N[C@@H](CO)CN1CCc2cc(F)ccc21 [Example 12, 1-(S)-(Benzimidazol-1-ylmethyl)-3,3-dimethyl-butyl [2-(5-fluoro-2,3-dihydro-indol-1-yl)-1-(R)-hydroxymethyl-ethyl]carbamate] | < 100 nM | ++ (++, >100) | +++ (+++, >1000) | − (−, <10)
C[C@@H](CN1CC(C)(C)c2cc(F)ccc21)NC(=O)O[C@H](Cn1cnc2ccccc21)CC(C)(C)C [Example 11, 1-(S)-(Benzimidazol-1-ylmethyl-3,3-dimethyl)-butyl [2-(5-fluoro-3,3-dimethyl-2,3-dihydro-indol-1-yl)-1-(S)-methyl-ethyl]carbamate] | < 100 nM | ++ (++, >100) | +++ (+++, >1000) | − (−, <10)

Next, values leading:

Ki (Cathepsin S) | Selectivity for Cat. S over Cat. L (Cathepsin L) | Selectivity for Cat. S over Cat. B (Cathepsin B) | Selectivity for Cat. S over Cat. K (Cathepsin K) | SMILES
< 1000 nM | ++ (++, >100) | +++ (+++, >1000) | + (+, >10) | C[C@@H](CNc1ccc(OC(F)F)cc1)NC(=O)O[C@@H](CC1CCCC1)Cn1cnc2cc(Cl)c(Cl)cc21 [Example 8, 1-(S)-Cyclopentylmethyl-2-(5,6-dichloro-benzimidazol-1-yl)-ethyl [2-(4-difluoromethoxy-phenylamino)-1-(S)-methyl-ethyl]carbamate]
< 1000 nM | ++ (++, >100) | ++ (++, >100) | − (−, <10) | C[C@@H](CN1CCc2cc(F)ccc21)NC(=O)O[C@H](CN1CCOCC1)CC(C)(C)C [Example 5, 3,3-Dimethyl-(S)-1-morpholin-4-ylmethyl-butyl [2-(5-fluoro-2,3-dihydro-indol-1-yl)-1-(S)-methyl-ethyl]carbamate]
< 100 nM | + (+, >10) | +++ (+++, >1000) | + (+, >10) | C[C@@H](CN1CCc2cc(F)ccc21)NC(=O)O[C@@H](CC1CCCC1)Cn1cnc2cc(Cl)c(Cl)cc21 [Example 9, 1-(S)-cyclopentylmethyl-2-(5,6-dichloro-benzimidazol-1-yl)-ethyl [2-(5-fluoro-2,3-dihydro-indol-1-yl)-1-(S)-methyl-ethyl]carbamate]
< 100 nM | + (+, >10) | +++ (+++, >1000) | + (+, >10) | C[C@@H](CNc1ccc(OC(F)(F)F)cc1)NC(=O)O[C@@H](CC1CCCC1)Cn1cnc2cc(Cl)c(Cl)cc21 [Example 10, 1-(S)-Cyclopentylmethyl-2-(5,6-dichloro-benzimidazol-1-yl)-ethyl [2-(4-trifluoromethoxy-phenylamino)-1-(S)-methyl-ethyl]carbamate]
< 100 nM | − (−, <10) | + (+, >10) | + (+, >10) | CC(C)(C)C(Cn1cnc2cc(Cl)c(Cl)cc21)OC(=O)N[C@@H](CO)CN1CCc2cc(F)ccc21 (mixture of isomers) [Example 3, 1-(5,6-Dichloro-benzimidazol-1-ylmethyl)-2,2-dimethyl-propyl [2-(5-fluoro-2,3-dihydro-indol-1-yl)-1-(R)-hydroxymethyl-ethyl]carbamate]
